Source: patent US9855281B2, “Libido-enhancing therapeutic and use” (Scott Freeman Consultant, LLC, priority 2013, dated 2018)
“Also recorded” adds a separate entry of the source.

How the values were obtained:
male rats = experiment: In vivo libido stimulation assessment (mounts of rat couples); parameters: species or system Rattus novergicus, Wistar; settings: for mount kinetics profile along the night: FIGS. 12A-12F, time after coupling
Procedure: Female and male rats (Rattus novergicus) Wistar strain, with 200-280 g and 8-12 weeks old, were purchased from University of São Paulo Central Animal Care Unity. They were kept in controlled environment, including dark-light periods (12 hours each), temperature (22° to 25° C.), and with free access to water and food.
Female Wistar rats, weighing about 250 g, were ovariectomized. The procedure initiated inducing general anesthesia with Dopalen (Ketamin 70 mg/kg) and Anasedan (Xilazin 12 mg/kg), then abdominal wall was […] by the linea alba region, ovaries location, ligation of vessels supplying the ovaries and the procedure was completed with ovariectomy, itself, as well as the suture of the abdominal wall and skin. After surgery the animals received analgesic (tramadol 2 mg/kg), antibiotic (enrofloxacin, 10 mg/kg) and anti-inflammatory (Maxicam—2 mg/kg) for at least one week, or more if necessary.
Pseudo-estrus inducing. The females received estradiol (0.2 mg/day) subcutaneously for two weeks after ovariotomoy for pseudo-estrus state inducing. This condition was evaluated by vaginal smears each two days after estradiol treatment beginning. Sterile cotton-tipped swabs wetted in distilled water were gently and quickly introduced into the vaginal orifice, carefully rotated (one twist) against the vaginal wall. Rats were not anesthetized during smear collection. Afterwards, the collected sample of vaginal epithelial cells was placed on glass slides, dried at 37° C., and fixed in an ethanol-ether solution (1:1) for one minute.
The slides were then examined under light microscopy. Only females in pseudo-estrus conditions were used for libido stimulation assessment (PACCOLA et al, 2013).
Libido stimulation assessment. For libido stimulation assessments, first male rats, weighing about 250-280 g, had their penis anesthetized with 2% lidocaine by topical route 10 minutes before treatment. The three drugs were administered orally at 50 mg/kg each two days for six days (each rat received three doses). Nandrolone (IM) was used as the positive control group while olive oil and water were used as negative controls (orally administrated), as described below in TABLE 2. After one hour of treatment, couples were put together in a box, and a video camera with night vision was adequately positioned to encompass all the groups in the video, recording overnight the matches.
Analysis of the videos was performed according to the following parameters: time to first mating, duration of mounts, and quantity of mounts.
The libido studies focused the investigation in how drugs would stimulate male rats to increase matching. Considering that sexual activity in animals is related with reproduction and not only with pleasure, assessment of increase desire is particular subjective. To ensure that the observations were related with Central Nervous System modulation, 2% Lidocaine was topically applied at penis glans, to avoid any local stimulation.
The animals were treated each two days with 50 mg/Kg of test drugs (given orally), water and olive oil as negative control (given orally) and nandrolone (IM).

human = experiment: Accidental physical contact of a human with the compositions (Example 1); assay type: in vivo; settings: accidental physical contact with Formulas (I), (II) and (III) together while synthesizing
Source text: A human came in physical contact with the compositions of the libido-enhancing therapeutics of Formula (I), Formula (II), and Formula (III) by accident while synthesizing the compositions.

[1] = rats, 50 mg/Kg orally, nandrolone IM

## CC(=O)O[C@H]1CCC2C3CC[C@H]4CC(=O)CC[C@H]4C3CC[C@@]21C (stereo partly drawn) [Formula (I), (5S,10R,13S,17S)-13-methyl-3-oxohexadecahydro-1H-cyclopenta[a]phenanthren-17yl acetate]
Male rats; FIG. 10, 50 mg/Kg orally each two days, three doses, nandrolone IM, compared with controls and other drugs
  total number of mounts after each treatment: significantly increased
Male rats; FIG. 11, 50 mg/Kg orally, nandrolone IM
  number of mounts per hour, difference to nandrolone: more than twice
Male rats; 50 mg/Kg orally, nandrolone IM, listed as CAS 5138-34-1, 50 mg/kg
  mount kinetics profile along the night: low activity at the first three hours after coupling; also recorded: intense and sustainable activity was achieved after the third hour until the seventieth hour of observation
Male rats; 50 mg/Kg orally, nandrolone IM, listed as CAS 5238-34-1, 50 mg/kg
  mount kinetics profile along the night: took a long time to have some effect
Male rats; rats, 50 mg/Kg orally
  stress or fatigue after each intercourse: no kind of stress of fatigue was observed
Male rats; [1]
  libido stimulation: effective and sustainable late libido stimulation for greater than seven hours
human
  arousal and libido: weekend-long period of arousal and increased libido

## CC(=O)O[C@H]1CCC2C3CC[C@H]4C[C@@H](O)CC[C@H]4C3CC[C@@]21C (stereo partly drawn) [Formula (II), (3S,5S,10R,13S,17S)-3-hydroxy-13-methylhexadecahydro-1H-cyclopenta[a]phenanthren-17yl acetate]
Male rats; 50 mg/Kg orally, nandrolone IM
  mount kinetics profile along the night: total decrease of activity after 2 hours coupling
human
  arousal and libido: weekend-long period of arousal and increased libido

## C[C@]12CCC3C(CC[C@H]4CC(=O)CC[C@H]34)C1CC[C@@H]2O (stereo partly drawn) [Formula (III), (5S,10S,13S,17S)-17-hydroxy-13-methyltetradecahydro-1H-cyclopenta[a]phenanthren-3(2H)-one]
Male rats; 50 mg/Kg orally, nandrolone IM
  mount kinetics profile along the night: few mounts in subsequently hours
human
  arousal and libido: weekend-long period of arousal and increased libido

## C[C@]12CC[C@H]3[C@@H](CCC4=CC(=O)CC[C@@H]43)[C@@H]1CC[C@@H]2O [Nandrolone, reference compound]
Male rats; 50 mg/Kg orally, nandrolone IM
  mount kinetics profile along the night: low stimulation at the first three hours with a peak of activity at the fourth hour retuning to baseline (zero activity) at the sixth hour
Male rats; [1]
  libido stimulation: enhance libido early (hours)
